Measured values published in patent US10898504B2, “Substituted nucleoside analogues for use as PRMT5 inhibitors” (Janssen Pharmaceutica NV, priority 2016, dated 2021).
Where “and” joins values, the source holds several entries; their conditions need not be identical. Equal values may be shown once.

Assays:
A549 cells = assay: PD assay (Assay 2): inhibition of nuclear symmetric Arginine dimethylation (SYM10 immunohistochemistry) in A549 cells; type: cell-based; details: individual measurements shown; for pIC50 Assay 2: PD assay in A549 cells; for IC50: Homo sapiens, A549, PD assay in A549 cells, read-out: pIC50 Assay 2 (converted)
Description: EXPERIMENTAL PROCEDURE PD ASSAY (ASSAY 2)
A549 cells (ATCC, Cat #CCL-185) were cultured in Dulbecco's Modified Eagle's Medium (DMEM) (Sigma, Cat #D5796), supplemented with 10% Fetal Calf Serum (FCS)(HyClone™, Cat #SV30160.03), 100 mM Sodium Pyruvate (Sigma, Cat #S8636), 200 mM L-Glutamine (Sigma, Cat #G7513) and 50 mg/mL Gentamycing (Gibco, Cat #15750-037).
Reagents used for buffers were purchased: Dulbecco's phosphate buffered saline (DPBS) without Ca/Mg (Sigma, Cat #D8537), phosphate buffered saline (PBS) 10× (Roche, Cat #11 666 789 001), Formalin solution 10% (Sigma, HT50-1-128-4L), MeOH 100% (Sigma, Cat #32213-2.5L), Triton X-100 (Acros, Cat #215680010), Bovine Serum Albumin (BSA) (Sigma, Cat #A2153), Alexa fluor 488 goat anti-rabbit antibody (Life Technologies, Cat #A11034), HCS CellMask Deep Red Stain (Life Technologies, Cat #H32721), Hoechst Stain (Life Technologies, Cat #33258), Anti-dimethyl-Arginine, sym (SYM10) antibody (Millipore, 07-412).
Immunohistochemistry Procedure
Cells were plated at 400 cells/40 μL/well in 384 well black plates μclear bottom (Perkin Elmer) and overnight incubated at 37° C., 5% CO2. The IC50 Studies were performed using nine point dosing series ranging from 10 μM to […] for each compound. 80 nL of the respective dilution of the compounds was added using the Labcyte POD 810 (Labcyte) reaching a final DMSO concentration of 0.2% in cell culture. After an incubation period of 48 h at 37° C. and 5% CO2, cells were fixed in 10% formalin solution for 15 min at r.t. and 20 min in ice-cold MeOH, after which they were washed 3× in DPBS. Subsequently, the cells were blocked for 1 h in blocking buffer (PBS+1% BSA and 0.5% Triton X-100) and incubated overnight at 4° C. with the SYM10 antibody diluted 1/2000 in blocking buffer. The cells were washed 3× with washing buffer (PBS+0.1% Triton X-100) and incubated with the Alexa fluor 488 goat anti-rabbit antibody diluted 1/200 in blocking buffer for 1 h at r.t. Subsequently, they were washed 3× with washing buffer and incubated for 30 min at r.t. with PBS containing a 1/5000 dilution of Hoechst Stain and a 1/5000 dilution of the HCS CellMask Deep Red Stain. After a final wash with PBS, the plates were imaged using the 10×W lens of the Opera® system (Perkin Elmer Life Sciences) using following settings (values in nm):
In the above equations, the following variable names are use: […]
In the above equations, the following controls were used for normalization: […]
Low control: minimum level of symmetrically dimethylated Arginines (cells treated with reference compound at 10 μM).
High control: maximum level of symmetrically dimethylated Arginines (DMSO treated cells).
IC50 and pIC50 (−log IC50) values were calculated using the appropriate software.
pIC50 values (Co. No. means compound number; n.d. means not determined).

PRMT5-MEP50 enzyme = biological target: T1, PRMT5-MEP50 enzyme (Homo sapiens, UniProt O14744); assay: In vitro assay (Assay 1): PRMT5-MEP50 high throughput mass spectrometer assay, inhibition of SAH formation; type: biochemical; details: individual measurements shown, read-out: pIC50 Assay 1 (converted)
T1 construct: One virus expresses full length human PRMT5 with Flag-tag at N-terminus
Description: EXPERIMENTAL PROCEDURES IN VITRO ASSAY (ASSAY 1)
PRMT5-MEP50 enzyme was purchased from Charles River (Argenta). The enzyme complex was produced in insect cells (Sf9) infected simultaneously with two baculoviruses. One virus expresses full length human PRMT5 with Flag-tag at N-terminus, the second virus expresses full length MEP50 with His6-TEV cleavage at N-terminus. The protein was affinity purified using anti-Flag (M2) beads eluted with 3×FLAG peptide, followed by His-Select eluted with 0.5M imidazole. Eluted protein was then dialysed against tris-buffered saline (TBS) (pH 8.0) containing 20% glycerol and 3 mM dithiothreitol (DTT).
Full-length untagged human recombinant histone H2A (residues 1-130, Genbank Accession #NM_021052, MW=14.1 kDa) expressed in E. coli was purchased from Reaction Biology Corporation, Cat #HMT-11-146. Reagents used for making reaction buffer or stopping reaction were purchased including Tris base (Sigma Cat #T-1503), NaCl (Sigma Cat #RGF-3270), MgCl2 (Sigma Cat #M0250), DTT (Invitrogen Cat #15508-013) and Formic Acid (Riedel deHaen, Cat #33015)
High Throughput Mass Spectrometer Assay
PRMT5 catalyzes the sequential methylations of the terminal nitrogen atoms on the guanidine groups of arginine residues within proteins using co-substrate S-adenosyl-L-methionine (AdoMet, SAM), forming mono-methyl (MMA), symmetric-dimethyl arginine (sDMA) and S-adenosyl-L-homocysteine (AdoHcy, SAH). The enzyme activity was determined by following the product SAH formation using high throughput mass spectrometry (Agilent Rapidfire 300 System coupled to a Sciex 4000 series QTrapm triple-quad MS/MS). The reaction buffer was 20 mM Tris-HC, pH 8.5, 50 mM NaCl, 5 mM MgCl2 and 1 mM DTT. The reaction activity was stopped using 1% formic acid (final concentration).
The IC50 Studies were performed using eleven point dosing series made for each compound by serially diluted 1:2 in dimethyl sulfoxide (DMSO), with point 12 being a DMSO control. Compounds were first spotted to plates, and followed by addition of 2 μM SAM and 0.6 μM H2A (histone H2A) solution mixture. The same volume of enzyme solution was added to initiate the enzymatic reactions. The final concentrations of the reaction are at 1 μM SAM, 0.3 μM H2A and 10 nM enzyme. The reaction was incubated at 30° C. for 60 minutes (min) and then quenched by addition of formic acid to a final concentration of 1%. The inhibitions of SAH formation in the presence of compounds were calculated as a percentage of the control relative to the uninhibited reaction as a function of inhibitor concentration. The data were fit as follows: Y=Bottom+(Top−Bottom)/(1+10^((log IC50−X)*h))
where IC50 is the inhibitor concentration (same unit as X) at 50% inhibition and h is the Hill slope. Y is percent of inhibition, X is log of compound concentration. Bottom and Top are the plateaus in same units as Y.

T1 sequence (O14744 whole entry): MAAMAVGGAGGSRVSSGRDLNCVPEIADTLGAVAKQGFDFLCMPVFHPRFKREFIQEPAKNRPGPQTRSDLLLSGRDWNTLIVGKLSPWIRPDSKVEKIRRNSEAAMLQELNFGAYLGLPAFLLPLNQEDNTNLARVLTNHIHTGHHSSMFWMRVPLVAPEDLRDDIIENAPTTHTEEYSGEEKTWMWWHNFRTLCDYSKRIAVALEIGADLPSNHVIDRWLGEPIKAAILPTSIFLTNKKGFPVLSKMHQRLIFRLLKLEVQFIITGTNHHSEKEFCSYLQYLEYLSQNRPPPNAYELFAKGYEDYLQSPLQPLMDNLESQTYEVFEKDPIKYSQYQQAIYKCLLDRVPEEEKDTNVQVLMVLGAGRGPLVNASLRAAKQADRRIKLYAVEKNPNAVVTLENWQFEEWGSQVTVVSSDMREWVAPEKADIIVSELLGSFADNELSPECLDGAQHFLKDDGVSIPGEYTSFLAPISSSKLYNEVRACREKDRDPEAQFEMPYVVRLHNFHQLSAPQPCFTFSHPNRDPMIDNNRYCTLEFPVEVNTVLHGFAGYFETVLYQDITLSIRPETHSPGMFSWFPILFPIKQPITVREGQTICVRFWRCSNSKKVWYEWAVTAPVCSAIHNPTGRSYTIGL
T1 sequence (Q9BQA1 whole entry partner): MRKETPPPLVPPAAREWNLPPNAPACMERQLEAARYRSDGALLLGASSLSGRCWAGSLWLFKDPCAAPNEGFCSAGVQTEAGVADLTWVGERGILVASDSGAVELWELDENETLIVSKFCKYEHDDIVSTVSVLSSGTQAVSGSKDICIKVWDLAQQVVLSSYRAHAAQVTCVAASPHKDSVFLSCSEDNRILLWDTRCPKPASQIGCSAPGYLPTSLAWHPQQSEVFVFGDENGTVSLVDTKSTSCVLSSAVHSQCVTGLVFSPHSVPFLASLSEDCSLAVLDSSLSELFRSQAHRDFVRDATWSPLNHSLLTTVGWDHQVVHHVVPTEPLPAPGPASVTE

| Structure (SMILES) | pIC50 Assay 2 (A549 cells) | IC50 (PRMT5-MEP50 enzyme) | IC50 (A549 cells) [nM] |
| --- | --- | --- | --- |
| CC(C)C(=O)O[C@@H]1[C@H](OC(=O)C(C)C)[C@@H](CN2CC(F)(F)CC23CCN(C)CC3)O[C@H]1n1ccc2c(N)ncnc21 [Compound 101] | 7.06 and 7.08 | – | – |
| Nc1nccc2c1ccn2[C@@H]1O[C@H](CN2CCCC23CCNCC3)[C@@H](O)[C@H]1O [Compound 61] | – | 129 nM | > 10000 |
| N#CCN1CCC2(CCCN2C[C@H]2O[C@@H](n3ccc4c(N)ncnc43)[C@H](O)[C@@H]2O)CC1 [Compound 192] | – | 69.2 nM | 83.2 |
| CN1CCC2(CCC=C2C[C@H]2C[C@@H](n3ccc4c(N)ncnc43)[C@H](O)[C@@H]2O)CC1 [Compound 206] | – | 5.13 nM | 64.6 |
| CN(C)CC[C@@H]1CC(F)(F)CN1C(=O)[C@H]1O[C@@H](c2ccc3c(N)ncnn23)[C@H](O)[C@@H]1O [Compound 162] | – | 3800 nM | > 20000 |
| CN1CCC2(CCCN2C[C@H]2O[C@@H](n3ccc4c(NCc5ccc(F)cc5)ncnc43)[C@H](O)[C@@H]2O)CC1 [Compound 203] | – | 209 nM | 661 |
| Nc1ncnc2c1ccn2[C@@H]1C[C@H](C(=O)N2CCCC23CCNCC3)[C@@H](O)[C@H]1O [Compound 163] | – | 8.51 nM | 126 |
| O[C@@H]1[C@H](O)[C@@H](CN2CCCC23CCNCC3)O[C@H]1n1cnc2c(NC3CC3)ncnc21 [Compound 270] | – | 4680 nM and 4270 nM and 3470 nM | > 10000 |
| Nc1ncnn2c([C@@H]3O[C@H](CN4CCOC5(CNC5)C4)[C@@H](O)[C@H]3O)ccc12 [Compound 109] | – | 2240 nM | > 10000 |
| NCC1CCN(C[C@H]2O[C@@H](n3ccc4c(N)ncnc43)[C@H](O)[C@@H]2O)C1 (stereo partly shown) [Compound 56] | – | 186 nM | ~10000 |
| NCC[C@@H]1CCCN1C[C@H]1O[C@@H](n2cnc3c(N)ncnc32)[C@H](O)[C@@H]1O [Compound 59] | – | 44.7 nM | 2400 |
| Nc1ncnc2c1ccn2[C@@H]1O[C@H](CN2CCCC2(CN2CCCC2)C(F)(F)F)[C@@H](O)[C@H]1O (stereo partly shown) [Compound 189] | – | > 10000 nM | – |
| CNC(=O)CN1CCC2(CCCN2C[C@H]2O[C@@H](n3ccc4c(N)ncnc43)[C@H](O)[C@@H]2O)CC1 [Compound 197] | – | 6460 nM | > 10000 |
| Nc1ncnc2c1ncn2[C@@H]1O[C@H](CN2CC3(CCCN3)C2)[C@@H](O)[C@H]1O [Compound 83] | – | 44700 nM | > 10000 |
| COCCN1CCC2(CCCN2C[C@H]2O[C@@H](n3ccc4c(N)ncnc43)[C@H](O)[C@@H]2O)CC1 [Compound 194] | – | 427 nM | ~5620 |
| NCC1CCCN1C[C@H]1O[C@@H](n2ccc3c(N)ncnc32)[C@H](O)[C@@H]1O (stereo partly shown) [Compound 60] | – | 28.8 nM | 1150 |
| CN1CCCCC12CN(C[C@H]1O[C@@H](n3cnc4c(N)ncnc43)[C@H](O)[C@@H]1O)C2 [Compound 10] | – | 38900 nM and 24500 nM | > 10000 |

| Structure (SMILES) | pIC50 Assay 2 (A549 cells) | IC50 (PRMT5-MEP50 enzyme) | IC50 (A549 cells) [nM] |
| --- | --- | --- | --- |
| NC[C@@H]1COCCN1C[C@H]1O[C@@H](c2ccc3c(N)ncnn23)[C@H](O)[C@@H]1O [Compound 132] | – | 1550 nM | > 20000 |
| Nc1ncnc2c1ncn2[C@@H]1O[C@H](CN2CCCC23CNC3)[C@@H](O)[C@H]1O [Compound 91] | – | 1230 nM | > 10000 |
| Nc1ncnc2c1ccn2[C@@H]1O[C@H](CN2CCCC23CCN(Cc2cccnn2)CC3)[C@@H](O)[C@H]1O [Compound 199] | – | 891 nM | 1860 |
| Nc1ncnc2c1ncn2[C@@H]1O[C@H](CN2CCCC23CCNCC3)[C@@H](O)[C@H]1O [Compound 76] | ~5.65 and ~5.97 | 89.1 nM and 32.4 nM and 24.5 nM | – |
| Nc1ncnc2c1ccn2[C@@H]1O[C@H](CN2CCCC23CCCNC3)[C@@H](O)[C@H]1O (single isomer, unassigned) [Compound 120] | <5 | 2290 nM | – |
| Nc1ncnc2c1ccn2[C@@H]1O[C@H](CN2CCOC3(CNC3)C2)[C@@H](O)[C@H]1O [Compound 31] | – | 39.8 nM | ~1450 |
| CC(C)C(=O)O[C@@H]1[C@H](OC(=O)C(C)C)[C@@H](CN2CC(F)(F)CC23CCN(C)CC3)O[C@H]1n1ccc2c(N)ncnc21 [Compound 103] | 6.46 | > 10000 nM | – |
| CN(C)CC[C@@H]1CC(F)(F)CN1C[C@H]1O[C@@H](c2ccc3c(N)ncnn23)[C@H](O)[C@@H]1O [Compound 152] | – | 2950 nM | 4070 |
| Nc1ncnc2c1c(F)cn2[C@@H]1O[C@H](CN2CCCC23CCNCC3)[C@@H](O)[C@H]1O [Compound 24] | – | 11.7 nM | ~67.6 |
| Nc1ncnc2c1ccn2[C@@H]1C[C@H](/C=C2\CCCC23CCNCC3)[C@@H](O)[C@H]1O [Compound 167] | 7.68 | 3.16 nM and 1.58 nM | 30.2 |
| Nc1ncnc2c1ccn2[C@@H]1O[C@H](CN2CC(F)(F)CC23CCNCC3)[C@@H](O)[C@H]1O [Compound 29] | ~7.35 | 10.2 nM and 7.59 nM | ~60.3 |
| CN1CCC2(CCCN2C[C@H]2O[C@@H](n3cnc4c(N)ncnc43)[C@H](O)[C@@H]2O)CC1 [Compound 1] | – | 219 nM | 7240 |
| Nc1ncnn2c([C@@H]3O[C@H](CN4CCC[C@H]4CCN4CCOCC4)[C@@H](O)[C@H]3O)ccc12 [Compound 150] | – | > 10000 nM | > 10000 |
| CN1CC2(CCN2C[C@H]2O[C@@H](n3cnc4c(N)ncnc43)[C@H](O)[C@@H]2O)C1 [Compound 18] | – | 8510 nM | > 10000 |
| CN1CCC12CN(C[C@H]1O[C@@H](n3cnc4c(N)ncnc43)[C@H](O)[C@@H]1O)C2 [Compound 17] | – | > 100000 nM | – |
| CN1CCC2(C1)CN(C[C@H]1O[C@@H](n3cnc4c(N)ncnc43)[C@H](O)[C@@H]1O)C2 [Compound 6] | – | > 100000 nM | – |
